In patent US20240299385A1 (ReWind Therapeutics NV, priority 2021, published 2024) one finds IC50 data, which are given here for 41 molecules.

The target in this assay is T1, human GPR17 receptor (Homo sapiens, UniProt Q13304).
T1 construct: host or cells: HEK-293
Description: Calcium mobilization functional assay (Fluo-8, FLIPR TETRA) in HEK-293 hGPR17 (Gα-q assay). The assay is classed as cell-based. The settings on record: antagonism of MDL29,951 (~EC80) induced Ca2+ signal; cell line (HEK-293 hGPR17 or HEK-293 Suchi5 hGPR17) not given. Put shortly: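 Fluo-8-loaded HEK-293 hGPR17 cells (60 min dye loading, room temperature) were preincubated with compound for twenty minutes, then challenged with agonist MDL29,951 at ~EC80, 500 nM. Intracellular calcium release via Gα-q was recorded as FLIPR fluorescence for a further 2 minutes; compounds tested in duplicate.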

T1 sequence (Q13304 whole entry): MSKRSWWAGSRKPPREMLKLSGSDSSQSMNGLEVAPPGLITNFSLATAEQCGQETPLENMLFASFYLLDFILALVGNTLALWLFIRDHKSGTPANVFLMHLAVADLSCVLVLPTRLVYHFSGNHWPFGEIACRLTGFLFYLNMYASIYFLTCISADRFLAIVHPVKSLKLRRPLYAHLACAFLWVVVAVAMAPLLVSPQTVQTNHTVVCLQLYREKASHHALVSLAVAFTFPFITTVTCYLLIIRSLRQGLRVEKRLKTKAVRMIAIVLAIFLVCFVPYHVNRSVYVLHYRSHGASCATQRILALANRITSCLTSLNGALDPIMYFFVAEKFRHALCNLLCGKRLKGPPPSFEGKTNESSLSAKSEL

A word on the IC50: it is the concentration needed to halve the response being measured. `O=S(=O)(Nc1cc(F)c(C(F)(F)F)cc1F)c1c[nH]c(-c2ccc(F)cn2)c1` [Cpd 189, N-[2,5-difluoro-4-(trifluoromethyl)phenyl]-5-(5-fluoro-2-pyridyl)-1H-pyrrole-3-sulfonamide]: the IC50 lay in the range of 0.5 to 5 µM.

Turning to `O=S(=O)(Nc1ccc(C(F)(F)F)c(F)c1)c1c[nH]c(-c2ccccn2)c1` [Cpd 190, N-[3-fluoro-4-(trifluoromethyl)phenyl]-5-(2-pyridyl)-1H-pyrrole-3-sulfonamide], the IC50 is 0.5 to 5 µM.

For `COc1ncccc1-c1cc(S(=O)(=O)Nc2cc(F)c(C(F)(F)F)cc2F)c[nH]1` [Cpd 191, N-[2,5-difluoro-4-(trifluoromethyl)phenyl]-5-(2-methoxy-3-pyridyl)-1H-pyrrole-3-sulfonamide], the IC50 is below 0.5 µM.

On to `O=S(=O)(Nc1ncc(Cl)cc1F)c1c[nH]cc1Cc1ccccc1` [Cpd 192, 4-benzyl-N-(5-chloro-3-fluoro-2-pyridyl)-1H-pyrrole-3-sulfonamide], for which the IC50 lay in the range of 5 to 50 µM.

Consider `O=S(=O)(Nc1cc(F)c(Br)cc1F)c1c[nH]cc1Cc1ccccc1` [Cpd 193, 4-benzyl-N-(4-bromo-2,5-difluoro-phenyl)-1H-pyrrole-3-sulfonamide], for which the IC50 is 0.5 to 5 µM.

As for `N#Cc1ccc(NS(=O)(=O)c2c[nH]cc2Cc2ccccc2Cl)c(F)c1` [Cpd 194, 4-[(2-chlorophenyl)methyl]-N-(4-cyano-2-fluoro-phenyl)-1H-pyrrole-3-sulfonamide], the IC50 is 0.5 to 5 µM.

For the molecule `N#Cc1ccc(NS(=O)(=O)c2c[nH]cc2C(=O)c2ccccc2)c(F)c1` [Cpd 195, 4-benzoyl-N-(4-cyano-2-fluoro-phenyl)-1H-pyrrole-3-sulfonamide], the IC50 was in the range of 0.5 to 5 µM.

On to `COc1ccc(F)c(NS(=O)(=O)c2c[nH]c(-c3ccccn3)c2)c1` [Cpd 196, N-(2-fluoro-5-methoxy-phenyl)-5-(2-pyridyl)-1H-pyrrole-3-sulfonamide], for which the IC50 fell in the range of 5 to 50 µM.

For the molecule `O=S(=O)(Nc1cc(F)c(C(F)(F)F)cc1F)c1c[nH]c(-c2ccc(Cl)cn2)c1` [Cpd 197, 5-(5-chloro-2-pyridyl)-N-[2,5-difluoro-4-(trifluoromethyl)phenyl]-1H-pyrrole-3-sulfonamide], the IC50 lay in the range of 5 to 50 µM.

Regarding `COc1cc(C(F)(F)F)cnc1NS(=O)(=O)c1c[nH]c(-c2ccccn2)c1` [Cpd 198, N-[3-methoxy-5-(trifluoromethyl)-2-pyridyl]-5-(2-pyridyl)-1H-pyrrole-3-sulfonamide], the IC50 fell in the range of 0.5 to 5 µM.

Regarding `O=S(=O)(Nc1cc(C(F)(F)F)ncc1F)c1c[nH]c(-c2ccccc2)c1` [Cpd 199, N-[5-fluoro-2-(trifluoromethyl)-4-pyridyl]-5-phenyl-1H-pyrrole-3-sulfonamide], the concentration for half-maximal inhibition (IC50) was 5 to 50 µM.

Take `CC(=O)c1ccc(NS(=O)(=O)c2c[nH]c(-c3ccccn3)c2)c(F)c1` [Cpd 200, N-(4-acetyl-2-fluoro-phenyl)-5-(2-pyridyl)-1H-pyrrole-3-sulfonamide]: the concentration for half-maximal inhibition (IC50) lay within 5 to 50 µM.

In the case of `N#CCc1cnc(NS(=O)(=O)c2c[nH]c(-c3ccccn3)c2)c(F)c1` [Cpd 201, N-[5-(cyanomethyl)-3-fluoro-2-pyridyl]-5-(2-pyridyl)-1H-pyrrole-3-sulfonamide], the IC50 lay within 5 to 50 µM.

Turning to `O=S(=O)(Nc1cc(F)c(Cl)cc1F)c1c[nH]c(-c2ccccn2)c1` [Cpd 202, N-(4-chloro-2,5-difluoro-phenyl)-5-(2-pyridyl)-1H-pyrrole-3-sulfonamide], the IC50 was below 0.5 µM.

Turning to `CCOC(=O)c1ccc(NS(=O)(=O)c2c[nH]c(-c3ccccn3)c2)c(F)c1` [Cpd 203], the IC50 was 0.5 to 5 µM.

Regarding `O=S(=O)(Nc1cc(F)c(C(F)(F)F)cc1F)c1c[nH]c(-c2ncccc2Cl)c1` [Cpd 204, 5-(3-chloro-2-pyridyl)-N-[2,5-difluoro-4-(trifluoromethyl)phenyl]-1H-pyrrole-3-sulfonamide], the IC50 is below 0.5 µM.

Take `O=S(=O)(Nc1cc(F)c(OC(F)F)cc1F)c1c[nH]c(-c2ccccn2)c1` [Cpd 205, N-[4-(difluoromethoxy)-2,5-difluoro-phenyl]-5-(2-pyridyl)-1H-pyrrole-3-sulfonamide]: the IC50 is below 0.5 µM.

For the molecule `N#Cc1ccc(NS(=O)(=O)c2c[nH]cc2Cc2cccc(Cl)c2)c(F)c1` [Cpd 206, 4-[(3-chlorophenyl)methyl]-N-(4-cyano-2-fluoro-phenyl)-1H-pyrrole-3-sulfonamide], the IC50 was below 0.5 µM.

As to `N#Cc1ccc(NS(=O)(=O)c2c[nH]cc2C(O)c2ccccc2)c(F)c1` (centres unmarked) [Cpd 207, N-(4-cyano-2-fluoro-phenyl)-4-[hydroxy(phenyl)methyl]-1H-pyrrole-3-sulfonamide], the IC50 was 5 to 50 µM.

For `N#Cc1ccc(NS(=O)(=O)c2c[nH]cc2Cc2ccc(Cl)cc2)c(F)c1` [Cpd 208, 4-[(4-chlorophenyl)methyl]-N-(4-cyano-2-fluoro-phenyl)-1H-pyrrole-3-sulfonamide], the IC50 fell in the range of 0.5 to 5 µM.

Regarding `COc1ccc(Cc2c[nH]cc2S(=O)(=O)Nc2ccc(C#N)cc2F)cc1` [Cpd 209, N-(4-cyano-2-fluoro-phenyl)-4-[(4-methoxyphenyl)methyl]-1H-pyrrole-3-sulfonamide], the IC50 lay in the range of 5 to 50 µM.

With `COc1cccc(Cc2c[nH]cc2S(=O)(=O)Nc2ccc(C#N)cc2F)c1` [Cpd 210, N-(4-cyano-2-fluoro-phenyl)-4-[(3-methoxyphenyl)methyl]-1H-pyrrole-3-sulfonamide], the IC50 is below 0.5 µM.

For the molecule `COc1ccccc1Cc1c[nH]cc1S(=O)(=O)Nc1ccc(C#N)cc1F` [Cpd 211, N-(4-cyano-2-fluoro-phenyl)-4-[(2-methoxyphenyl)methyl]-1H-pyrrole-3-sulfonamide], the IC50 was in the range of 0.5 to 5 µM.

As to `O=S(=O)(Nc1cc(F)c(C(F)(F)F)cc1F)c1c[nH]c(-c2cc(Cl)ccn2)c1` [Cpd 214, 5-(4-chloro-2-pyridyl)-N-[2,5-difluoro-4-(trifluoromethyl)phenyl]-1H-pyrrole-3-sulfonamide], the IC50 fell in the range of 0.5 to 5 µM.

As to `O=S(=O)(Nc1cc(F)c(C(F)(F)F)cc1F)c1c[nH]c(-c2cccc(Cl)n2)c1` [Cpd 215, 5-(6-chloro-2-pyridyl)-N-[2,5-difluoro-4-(trifluoromethyl)phenyl]-1H-pyrrole-3-sulfonamide], the IC50 was below 0.5 µM.

As for `C#Cc1cnc(NS(=O)(=O)c2c[nH]c(-c3ccccc3)c2)c(F)c1` [Cpd 216, N-(5-ethynyl-3-fluoro-2-pyridyl)-5-phenyl-1H-pyrrole-3-sulfonamide], the IC50 was 0.5 to 5 µM.

On to `N#Cc1ccc(NS(=O)(=O)c2c[nH]cc2-c2ccc(F)cc2)c(F)c1` [Cpd 217, N-(4-cyano-2-fluoro-phenyl)-4-(4-fluorophenyl)-1H-pyrrole-3-sulfonamide], for which the IC50 fell in the range of 5 to 50 µM.

Take `N#Cc1ccc(NS(=O)(=O)c2c[nH]cc2-c2ccc(Cl)cc2)c(F)c1` [Cpd 218, 4-(4-chlorophenyl)-N-(4-cyano-2-fluoro-phenyl)-1H-pyrrole-3-sulfonamide]: the IC50 was 0.5 to 5 µM.

Regarding `Cc1ccc(-c2c[nH]cc2S(=O)(=O)Nc2ccc(C#N)cc2F)cc1` [Cpd 219, N-(4-cyano-2-fluoro-phenyl)-4-(p-tolyl)-1H-pyrrole-3-sulfonamide], the half-inhibitory concentration (IC50) fell in the range of 0.5 to 5 µM.

`COc1cccc(-c2c[nH]cc2S(=O)(=O)Nc2ccc(C#N)cc2F)c1` [Cpd 220, N-(4-cyano-2-fluoro-phenyl)-4-(3-methoxyphenyl)-1H-pyrrole-3-sulfonamide]: the IC50 was 0.5 to 5 µM.

Regarding `Cc1cccc(-c2c[nH]cc2S(=O)(=O)Nc2ccc(C#N)cc2F)c1` [Cpd 221, N-(4-cyano-2-fluoro-phenyl)-4-(m-tolyl)-1H-pyrrole-3-sulfonamide], the IC50 fell in the range of 0.5 to 5 µM.

On to `N#Cc1ccc(NS(=O)(=O)c2c[nH]cc2-c2ccccc2Cl)c(F)c1` [Cpd 222, 4-(2-chlorophenyl)-N-(4-cyano-2-fluoro-phenyl)-1H-pyrrole-3-sulfonamide], for which the IC50 fell in the range of 5 to 50 µM.

In the case of `COc1ccccc1-c1c[nH]cc1S(=O)(=O)Nc1ccc(C#N)cc1F` [Cpd 223, N-(4-cyano-2-fluoro-phenyl)-4-(2-methoxyphenyl)-1H-pyrrole-3-sulfonamide], the half-inhibitory concentration (IC50) lay within 5 to 50 µM.

Turning to `COc1nccc(F)c1-c1cc(S(=O)(=O)Nc2cc(F)c(C(F)(F)F)cc2F)c[nH]1` [Cpd 224, N-[2,5-difluoro-4-(trifluoromethyl)phenyl]-5-(4-fluoro-2-methoxy-3-pyridyl)-1H-pyrrole-3-sulfonamide], the IC50 was below 0.5 µM.

On to `COc1nccc(F)c1-c1cc(S(=O)(=O)Nc2ccc(Cl)cc2F)c[nH]1` [Cpd 227, N-(4-chloro-2-fluoro-phenyl)-5-(4-fluoro-2-methoxy-3-pyridyl)-1H-pyrrole-3-sulfonamide], for which the IC50 is 0.5 to 5 µM.

With `N#Cc1ccc(NS(=O)(=O)c2c[nH]cc2-c2cccc(Cl)c2)c(F)c1` [Cpd 228, 4-(3-chlorophenyl)-N-(4-cyano-2-fluoro-phenyl)-1H-pyrrole-3-sulfonamide], the IC50 was below 0.5 µM.

`N#Cc1ccc(NS(=O)(=O)c2c[nH]cc2-c2ccccn2)c(F)c1` [Cpd 229, N-(4-cyano-2-fluoro-phenyl)-4-(2-pyridyl)-1H-pyrrole-3-sulfonamide]: the IC50 was in the range of 0.5 to 5 µM.

For `N#Cc1ccc(NS(=O)(=O)c2c[nH]cc2-c2cccc(F)c2)c(F)c1` [Cpd 230, N-(4-cyano-2-fluoro-phenyl)-4-(3-fluorophenyl)-1H-pyrrole-3-sulfonamide], the IC50 was below 0.5 µM.

As to `N#Cc1ccc(NS(=O)(=O)c2c[nH]cc2-c2ccccc2F)c(F)c1` [Cpd 231, N-(4-cyano-2-fluoro-phenyl)-4-(2-fluorophenyl)-1H-pyrrole-3-sulfonamide], the IC50 fell in the range of 0.5 to 5 µM.

In the case of `O=S(=O)(Nc1cc(F)c(OC(F)F)cc1F)c1c[nH]c(-c2ccccc2)c1` [Cpd 232, N-[4-(difluoromethoxy)-2,5-difluoro-phenyl]-5-phenyl-1H-pyrrole-3-sulfonamide], the IC50 is below 0.5 µM.

Regarding `O=S(=O)(Nc1ccc(OC(F)F)nc1)c1c[nH]c(-c2ccccc2)c1` [Cpd 233, N-[6-(difluoromethoxy)-3-pyridyl]-5-phenyl-1H-pyrrole-3-sulfonamide], the IC50 was 0.5 to 5 µM.
